Laboratory results published in patent US7718768B2, “Biologically active peptide [sequence]” (CMS Peptides Patent Holding Company Limited, priority 2001, dated 2010).
Marks after values point to notes of the source that are not given here. No end group written: not given here.

Experiments:
Type in all cases: in vivo, BALB/c mice
[1] = tested on: T lymphocyte; test: T lymphocyte transformation test (ConA, MTT) on spleen cells of treated mice; design: key: OD of assay wells divided by OD of control wells; details: IFN-γ and IL-2 groups 3×10^5 IU/kg/day, X ± SD
Protocol: (§1) The above substances were all dissolved in 0.5 ml saline and injected intraperitoneal (i.p.) for 15 continuous days, once per day.
(§2) Ten mice per group. The day after the last test substance administration, the mice were sacrificed by cervical dislocation. The spleen was isolated aseptically and manually dispersed in cold D-Hank's solution using an injection needle. The dispersed cell suspension was further sieved through a 100 gauge 150 μm diameter stainless steel sieve. After centrifugation at 200 g for 10 minutes, the supernatant was discarded. The cell pellet was re-suspended in 10 volume of Tris-NH4Cl buffer and then kept standing still for 10 minutes at room temperature. The suspended cells were collected by centrifugation at 150 g for 10 minutes. The cells were washed 2-4 times with cold D-Hank's solution by re-suspending and collecting by centrifugation with condition as described above. The washed cells were then diluted to the desired cell densities by RPMI-1640 culture medium, containing 10% fetal bovine serum.
(§3) Spleen cells of density 1×10^6/ml were placed onto a 96 wells cell culture plate, 100 μl/well, three parallel wells each of the assay sample and control sample per mouse. To the assay wells, 100 μl/well ConA of 100 μg/ml in RPMI-1640 was added, and 100 μl/well plain RPMI-1640 was used for the controls. The cells were incubated for 66 hrs at 37° C., 5% CO2. The cells were then pelleted by centrifugation at 150 g for 10 minutes.
50 μl/well MTT of 1 mg/ml in RPMI-1640 was added to the cell pellet and the cells re-suspended by shaking for 2 minutes. The incubation was continued for 4 hours. The supernatant was discarded after centrifugation at 150 g for 10 minutes. 120 μl 40 mM HCl-2-propanol was added to the cell pellet and shaken for 3 minutes. to obtain OD570nm of each well referenced at 630 nm. An ELISA reader was used
Each mouse formed three assay wells and three control wells. The Stimulation Index (SI) of each mouse was obtained by first deriving the average OD of the three parallel wells, then dividing the value of the assay wells by the control wells.

[2] = tested on: NK cell; test: NK cell cytotoxicity activity test (YAC-1 target cells, MTT) on spleen cells of treated mice; details: IFN-γ and IL-2 groups 3×10^5 IU/kg/day, X ± SD
Protocol: as §1, §2
Mice spleen cells were prepared to 4×10^6/ml as described in section 1.1 above. Target cells YAC-1 were brought to log phase and adjusted to 1×10^5/ml. Using a 96 wells cell culture plate, 100 μl mouse spleen cells and 100 μl culture medium were added to the control well containing only the spleen cells; 100 μl target cells and 100 μl culture medium were added to the control well containing only target cells; 100 μl mouse spleen cells and 100 μl target cells were added to the NK activity assay well. Three parallel sets of the above were prepared per mouse.
Samples were centrifuged at 150 g for 10 minutes to collect the cells. The supernatant was discarded and 50 μl/well MTT of 1 mg/ml was added. The reaction mixture was then shaken for 2 minutes, and incubated at 37° C., 5% CO2 for 4 hours. The supernatant was discarded after centrifugation at 150 g for 10 minutes. 120 μl 40 mM HCl-2-propanol was added and shaken for 3 minutes. An ELISA reader was used to obtain OD570nm of each well referenced at 630 nm.

[3] = tested on: anti-SRBC antibody; test: Sheep Red Blood Cell (SRBC) hemolysis test, anti-SRBC antibody formation; details: SRBC on day 12, IFN-γ and IL-2 groups 3×10^5 IU/kg/day, X ± SD
Protocol: Sheep red blood cells (SRBC) were prepared by collecting blood from cervical vein and put into a sterile flask with glass beads. The flask was shaken for 3 minutes and the blood then mixed with Alsever solution (glucose 2.05 g, NaCl 0.4 g, […] 0.8 g, adjust to 100 ml with distilled water) and stored at 4° C. Immediately before use, samples were centrifuged at 130 g, 5 minutes to collect the SRBC. The cells were washed two times by re-suspension and centrifugation in normal saline. Then the cell pellet was collected by centrifugation at 180 g for 10 minutes and re-suspended in saline to make the final working SRBC suspension, 2% (v/v).
Complement was prepared by adding 10 volumes of fresh Cavy serum into one volume centrifuge packed SRBC, and then gently shaking for 30 minutes at 4° C. The SRBC was removed by centrifugation at 200 g for 10 minutes. 10 volumes of normal saline were added to obtain the working complement solution.
The test substances were administered as described in section 1.1, plus intraperitoneal injection 0.2 ml SRBC per mouse on day 12. On the day after the last test substance administration (day 16), blood was collected from the eye canthus and left at room temperature for one hour for serum exudation. After centrifugation at 200 g for 10 minutes, the serum was diluted by 500 times with normal saline.
To 1 ml diluted mouse serum of each mouse, 0.5 ml SRBC suspension was added. Ice cold. Then 1 ml working complement solution was added and incubated at 37° C. water bath for 10 minutes. Reactions were terminated by ice cold. Samples were then centrifuged at 200 g for 10 minutes to obtain the supernatant.
To 1 ml of this supernatant, 3 ml Drabkin solution was added and left at room temperature for 10 minutes. OD540nm was obtained.
Reference OD540nm was obtained by mixing 0.25 ml SRBC suspension with Drabkin solution to 4 ml and placed at room temperature for 10 minutes before OD540nm was taken. Sample serum index=(OD540nm of test sample[…]reference OD540nm)×500 3. The Effect of Peptides on the Phagocytosis Function of Mononuclear Phagocyte and the Weight of Immune Organ^[8,9].

[4] = immunity organ weight test (thymus gland index, spleen index); details: X ± SD
Protocol: as §1
(§4) One day after the last test substance administration (day 16), the liver, spleen, and thymus gland were separated and blotted dry with filter paper and weighed. The phagocytosis index α was calculated as below: α=(^3√K)(W÷WLS) key: W: body weight WLS: weight of liver plus spleen Thymus gland index(%)=(thymus weight/body weight)×100% Spleen index(%)=(spleen weight/body weight)×100%

[5] = tested on: T lymphocyte; test: T lymphocyte IL-2 secretion test (HT-2 cell bioassay of ConA supernatant); details: IFN-γ and IL-2 groups 3×10^5 IU/kg/day, X ± SD
Protocol: as §1, §3
HT-2 cells at log phase were collected by centrifugation at 150 g for 10 minutes, and washed three times with cold Hank's solution by re-suspension and centrifugation. The collected HT-2 cells were re-suspended in RPMI-1640 and incubated at 37° C., 5% CO2 for 30 minutes. The cells were further washed twice with RPMI-1640 by re-suspension and centrifugation, and re-suspended to final concentration of 2×10^5/ml with RPMI-1640.
rIL-2 was diluted to the following concentration with RPMI-1640: 500 IU/ml, 250 IU/ml, 125 IU/ml, 62.5 IU/ml, 31.25 IU/ml, and […].
A 96 well cell culture plate was set up with three parallel wells per combination:
Negative control: 100 μl RPMI-1640+100 μl HT-2 cell suspension
rIL-2 standard: 100 μl rIL-2 solution+100 μl HT-2 cell suspension
Assay well: 100 μl diluted supernatant+100 μl HT-2 cell suspension
The plate was incubated at 37° C., 5% CO2 for 68 hours, then centrifuged at 150 g for 15 minutes and the supernatant removed. 100 μl 0.5 mg/ml MTT in RPMI-1640 without phenolsulfonphthalein was added into each well. After shaking for 3-4 minutes to re-suspend the cells, continue to incubate for another 4 hours. Samples were then centrifuged at 150 g for 15 minutes and the supernatant was removed. To each well, 120 μl 40 mM HCl-2-propanol was added, mixed for 3-4 minutes and OD analyzed at 570 nm, referenced at 630 nm with an ELISA plate reader.
The average OD of the three parallel wells of each dilution was taken and plotted against concentration on a semi-log paper, concentration on the X-axis. The concentration at 50% OD saturation was obtained for both the testing supernatant and rIL-2.

[6] = tested on: mononuclear phagocyte; test: carbon particle clearance test, phagocytotic activity of mononuclear phagocyte; design: key: α = (cube root of K)×(body weight ÷ liver+spleen weight); details: peptide 0.5 μg/kg/day i.p. 15 days; IFN-γ and IL-2 groups 3×10^5 IU/kg/day; X ± SD
Protocol: On the next day after the last test substance administration (day 16), the mice were injected with […] body weight India ink (5 times dilution with normal saline) from the tail vein.
One minute and five minutes after Indian ink injection, 20 μl blood was obtained from the eye can thus with a heparinized tubing. The blood was mixed with 2 ml 0.1% w/v Na2CO3 and then OD680nm obtained. The outline clear index K was calculated by the following formula: K=(lgA1−lgA2)÷(t2−t1) Key: A1: OD680nm at first minute A2: OD680nm at fifth minute t2: 5 minutes […]
as §4

[7] = peptide 500 μg/kg/day i.p. 15 days
[8] = peptide 0.5 μg/kg/day i.p. 15 days
[9] = peptide 5 μg/kg/day i.p. 15 days
[10] = peptide 50 μg/kg/day i.p. 15 days
[11] = peptide 5 μg/kg/day i.p. 15 days, IFN-γ and IL-2 groups 3×10^5 IU/kg/day
[12] = peptide 50 μg/kg/day i.p. 15 days, IFN-γ and IL-2 groups 3×10^5 IU/kg/day
[13] = peptide 500 μg/kg/day i.p. 15 days, IFN-γ and IL-2 groups 3×10^5 IU/kg/day
[14] = peptide 0.5 μg/kg/day i.p. 15 days, IFN-γ and IL-2 groups 3×10^5 IU/kg/day

| Substance | stimulation index (T lymphocyte transformation) [1, 7] | NK cell cytotoxic activity (NK cell activity index) [2, 7] | anti-SRBC antibody formation (sample serum index) [3, 8] | anti-SRBC antibody formation (sample serum index) [3, 9] | anti-SRBC antibody formation (sample serum index) [3, 10] | anti-SRBC antibody formation (sample serum index) [3, 7] | weight of thymus gland (thymus gland index) [4, 11] | weight of spleen (spleen index) [4, 12] | weight of thymus gland (thymus gland index) [4, 12] | weight of thymus gland (thymus gland index) [4, 13] | stimulation index (T lymphocyte transformation) [1, 9] | activity of T lymphocyte in secreting IL-2 [5, 9] | activity of T lymphocyte in secreting IL-2 [5, 7] | weight of spleen (spleen index) [4, 7] | NK cell cytotoxic activity (NK cell activity index) [2, 10] | weight of thymus gland (thymus gland index) [4, 14] | stimulation index (T lymphocyte transformation) [1, 10] | NK cell cytotoxic activity (NK cell activity index) [2, 8] | phagocytotic index [6] |
| --- | --- | --- | --- | --- | --- | --- | --- | --- | --- | --- | --- | --- | --- | --- | --- | --- | --- | --- | --- |
| Phe Asn Glu Glu (FNEE; listed as Sus scrofa) [CMS029] | 1.7 ± 0.3 | 87 ± 4 % | 18 ± 7* Unit | 147 ± 23*^@^ Unit | 143 ± 13*^@^ Unit | 115 ± 22*^@^ Unit | 0.21 ± 0.03 % | 0.42 ± 0.04 % | 0.18 ± 0.05 % | 0.22 ± 0.04*^@^ % |  |  |  |  |  |  |  |  |  |
| Ala Gly Asp Asp Ala Pro Arg Ala Val Phe (AGDDAPRAVF; listed as Sus scrofa) [CMS007] | 1.6 ± 0.1 |  |  | 122 ± 12*^@^ Unit |  | 69 ± 17*^@ Unit |  |  |  |  | 1.7 ± 0.1 | 64 ± 12 IU | 86 ± 15*^ IU | 0.32 ± 0.05 % |  |  |  |  |  |
| TTYNSIM [CMS026] |  | 89 ± 7 % | 19 ± 6* Unit | 191 ± 17*^@^ Unit | 98 ± 9*^@^ Unit |  | 0.31 ± 0.05*^@^ % |  | 0.27 ± 0.02*^@^ % | 0.20 ± 0.03*^ % |  |  |  |  | 76 ± 9 % | 0.21 ± 0.05 % |  |  |  |
| VVYPWTQRF [CMS002] | 1.8 ± 0.3 |  | 4 ± 1* Unit |  |  | 87 ± 18*^@ Unit | 0.24 ± 0.05*^ % |  | 0.21 ± 0.02*^@^ % |  |  |  |  |  |  | 0.26 ± 0.06*^@^ % | 2.6 ± 0.3*^@^ | 76 ± 9 % |  |
| Phe Glu Ser Phe (FESF; listed as Sus scrofa) [CMS033] |  | 89 ± 8 % | 78 ± 12*^@ Unit | 128 ± 39*^@^ Unit | 112 ± 15*^@^ Unit | 143 ± 27*^@^ Unit | 0.20 ± 0.02 % |  | 0.18 ± 0.03 % | 0.25 ± 0.04*^@^ % |  |  |  |  |  |  |  |  |  |
| Phe Glu Glu Asn Met (FEENM; listed as Sus scrofa) [CMS027] |  | 88 ± 8 % | 99 ± 14*^@^ Unit | 117 ± 45*^@^ Unit | 93 ± 11*^@^ Unit |  |  |  | 0.21 ± 0.03*^@^ % | 0.20 ± 0.03*^ % |  |  |  | 0.37 ± 0.03 % |  |  |  |  | 6.4 ± 0.6 |
| Ala Ala Phe [CMS023] |  | 79 ± 12 % | 108 ± 21*^@^ Unit | 166 ± 27*^@^ Unit | 84 ± 11*^@^ Unit | 110 ± 45*^@^ Unit | 0.23 ± 0.06 % |  | 0.20 ± 0.02*^@^ % |  |  |  |  | 0.36 ± 0.06 % |  |  |  |  |  |
